From patent US7825231B2 (priority 2005, dated 2010)
“Also recorded” adds a separate entry of the source.

Legend:
Type in all cases: in vivo, rat
[1] = test system: male Sprague-Dawley rats; assay: CFA model of inflammatory pain: mechanical allodynia (von Frey hairs); conditions: three days after CFA injury
Protocol: (§1) Mechanical allodynia induced by SNL was determined by assessing the response of paw withdrawal to von Frey hairs of graded tensile strength as described previously with a tactile stimulus producing a 50% likelihood of withdrawal determined using the up-down method(53, 71, 72). Thermal hyperalgesia was determined using a Hargreaves apparatus recording the time to withdrawal from a radiant thermal stimulus positioned directly under the hind paw(73). Parametric statistics, using the general linear model for repeated measures were used to identify significant effects of treatment condition on the behavioral measure of neuropathic pain. The results were examined for a main effect of treatment group. All statistical analyses were performed using the software package, SPSS 13.0 for Windows (SPSS Inc., Chicago, Ill.).
(§2) Inflammatory injury was induced by injection of 150 μL CFA in the left-hind paw of male Sprague-Dawley rats.
Mechanical allodynia was tested using von Frey hair stimulation as described in Example 2. […] The antiallodynic effect of vEM2 was reversed by intrathecal (FIG. 5B) or intraperitoneal (FIG. 5C) administration of Nal-M.

[2] = test system: male Sprague-Dawley rats; assay: CFA model of inflammatory pain: thermal hyperalgesia (Hargreaves apparatus); conditions: three days after CFA injury
Protocol: as §1, §2
Thermal hyperalgesia was tested using a Hargreaves apparatus as in Example 2.

[3] = test system: male Sprague-Dawley rats; assay: CFA model of inflammatory pain: weight bearing (incapacitance analgesia meter); conditions: three days after CFA injury
Protocol: as §2
Weight-bearing ability in the CFA model was measured using an incapacitance analgesia meter. […] The effect of vEM2 was reversed by intrathecal (FIG. 7B) or intraperitoneal (FIG. 7C) administration of Nal-M.

[4] = test system: rats with SNL; assay: Spinal nerve ligation model of neuropathic pain: mechanical allodynia (von Frey hairs); conditions: intrathecal
Text: (§3) The spinal nerve ligation model was utilized to produce mechanical allodynia and thermal hyperalgesia, hallmarks of neuropathic pain(41).
(§4) Male Sprague-Dawley rats weighing 225 to 250 g underwent selective L5 SNL with the approval of the University Committee on Use and Care of Animals(53). Under isoflurane anesthesia, an incision was made in the atlanto-occipital membrane, a polyethylene (PE-10) catheter, filled with 0.9% saline, was advanced 8.5 cm caudally to position its tip at the level of the lumbar enlargement. The rostral tip of the catheter was passed subcutaneously, externalized on top of the skull, and sealed with a stainless-steel plug. One week after implantation of the intrathecal catheter, L5 spinal nerve ligation (SNL) was performed. […]
(§5) Mechanical allodynia induced by SNL was determined by assessing the response of paw withdrawal to von Frey hairs of graded tensile strength as described previously with a tactile stimulus producing a 50% likelihood of withdrawal determined using the up-down method(53, 71, 72). Thermal hyperalgesia was determined using a Hargreaves apparatus recording the time to withdrawal from a radiant thermal stimulus positioned directly under the hind paw(73). […]

[5] = test system: rats with SNL; assay: Spinal nerve ligation model of neuropathic pain: thermal hyperalgesia (Hargreaves apparatus); conditions: intrathecal
Text: as §3, §4, §5

[6] = 10 days after vEM2 in rats with SNL

Compound	effect on the antiallodynic effect of vEM2 (mechanical threshold) ([1]; intraperitoneal)	effect on the antiallodynic effect of vEM2 (mechanical threshold) ([1]; intrathecal)	effect on the anti-hyperalgesic effect of vEM2 (thermal latency) ([2]; intraperitoneal)	effect on the anti-hyperalgesic effect of vEM2 (thermal latency) ([2]; intrathecal)	effect on the effect of vEM2 (weight bearing differential) ([3]; intraperitoneal)	effect on the effect of vEM2 (weight bearing differential) ([3]; intrathecal)	effect on the antiallodynic effect produced by vEM2 [4, 6]	effect on mechanical threshold, given alone ([4]; normal animals, data not shown)	effect on the antihyperalgesic effect produced by vEM2 [5, 6]	effect on thermal latency, given alone ([5]; normal animals, data not shown)
C=CC[N+]1(C)CC[C@]23c4c5ccc(O)c4O[C@H]2C(=O)CC[C@@]3(O)[C@H]1C5 (stereo partly shown) [Nal-M, naloxone-methiodide]	reversed	reversed	reversed	not significantly affected; also recorded: did not significantly counteract	reversed	reversed				
CTOP							reversed	did not affect	reversed	did not affect
